Test system: BC3 Hl cells
Test: Diacylglycerol and phosphatidic acid production in labeled BC3 Hl myocytes
Assay type: cell-based, murine
Protocol: FIG. 12--Time Course of Diacylglycerol and Phosphatidic Acid Production in Response to Insulin. Myocytes were incubated for 20 hrs. in serum free DMEM with [9,10^3 H]myristic acid (New England Nuclear), complexed 1:1 to bovine serum albumin. Insulin was added to cells in fresh media for the designated intervals, and reactions were stopped by removal of media and addition of 1 ml chloroform/methanol/1N HCl (200:100:1). 0.6ml H2 O was added and upper aqueous phases were discarded following centrifugation at 500×g for 5 minutes. The lower, organic phases were dried under N2 and resuspended in 1 ml diethyl ether followed by addition of 1 […]. The upper ether phase was aspirated and the lower phase reextracted with 1 ml diethyl ether. The combined ether phases, containing diacylglycerol, were dried under N2, resuspended in chloroform and spotted on silica gel G plates which were preactivated at 60° C. for 1 hr. Plates were twice developed in petroleum ether/diethyl ether/glacial acetic acid (70:30:2). Five ug of unlabeled dimyristoylglycerol were added to each sample. Spots were visualized by iodine staining. To the lower aqueous phases from the ether extraction were added 1 ml of chloroform/methanol (2:1). Following centrifugation, the resulting upper aqueous phases were discarded and the lower organic phases dried under N2, resuspended in chloroform/methanol/H2 O (9:7:2) and spotted on "soft plus" silica gel plates. These were developed in chloroform/pyridine/70% formic acid (50:30:7), and phosphatidic acid was identified by an iodine stained standard. Lipids were scraped and radioactivity determined in a liquid scintillation counter.
BC3 Hl cells were cultured on collagen coated multiwell plates or petri dishes in Dulbecco's minimal essential medium (DMEM) supplemented with 20% Nu serum or 10% fetal calf serum. Cells were grown to maximal density and confluence, at which time they become responsive to insulin. Radiolabeled precursors were added for 20 hrs. in serum-free medium. [^3 H]Myristic and arachidonic acids were complexed 1:1 to bovine serum albumin prior to addition.
Following preincubations with the appropriate isotopes, cells were resuspended in DMEM without serum and treated with 10 nM insulin at the designated intervals. Reactions were terminated by the addition of 1 ml chloroform/methanol/1N HCl (200:100:1), followed by 0.5 ml 10 mM formic acid. Following centrifugation at 500 x g for 5 min., the upper phase was discarded. For phospholipid analyses, the lower, organic phase was dried under N2, resuspended in chloroform/methanol/H2 O (9:7:2) and spotted on oxalate impregnated silica gel G plates. These were sequentially developed in chloroform/acetone/methanol/glacial acidic acid/H2 O (10:4:2:2:1) and chloroform/methanol/4N NH4 OH (45:35:10). One cm regions were scraped and eluted with chloroform/methanol (2:1) and counted. Phosphoinositide standards were identified by iodine staining.
For analysis of neutral lipids, the chloroform/methanol organic phases were dried under N2 and resuspended in 1 ml diethyl ether followed by addition of 1 ml 50 mM formic acid. The upper ether phase was aspirated and the lower aqueous phase was reextracted with 1 ml diethyl ether. The pooled ether phases were dried under N2, resuspended in chloroform and spotted on silica gel G plates which were preactiviated at 60° C. for 1 hr. Plates were twice developed in petroleum ether/diethyl ether/glacial acetic acid (70:30:2). Five ug of unlabeled dimyristoyl glycerol, myristic acid and monomyristoyl glycerol were added as carriers to each sample.

Insulin: monocomponent bovine insulin was tested, and the “generation of [3H]stearyl diacylglycerol” value was “no detectable effect”, the “change in [3H]myristoyl diacylglycerol” value ([3H]myristate labeled cells) was “rapid increase” and the “time of maximal increase in labeled diacylglycerol” value ([3H]myristate labeled cells) was 1 min. For the same substance, the “change in [3H]arachidonyl diacylglycerol” value (cells incubated with [3H]arachidonic acid) was “slow increase”, the “increase in levels of [3H]myristate phosphatidic acid” value (insulin, achieved by 5 minutes) was 2 fold and the “maximal increase of labeled diacylglycerol over basal” value (insulin, by 5-10 minutes) was 50%. For the same substance, the “increase in [3H]myristate diacylglycerol” value (insulin, within 1 minute) was 40%.

Source: patent US4839466A, “Insulin activity messengers” (The Rockefeller University, priority 1987, dated 1989)
